Here are results for 2 molecules from ChEMBL document CHEMBL3526017, “Predicting the drug interaction potential of AMG 853, a dual antagonist of the D-prostanoid and chemoattractant receptor-homologous molecule expressed on T helper 2 cells receptors” (Drug Metab Dispos, 2012).

For data set [1], the target named is T1, Cytochrome P450 2C8 (Homo sapiens, UniProt P10632).
T1 sequence (P10632 whole entry): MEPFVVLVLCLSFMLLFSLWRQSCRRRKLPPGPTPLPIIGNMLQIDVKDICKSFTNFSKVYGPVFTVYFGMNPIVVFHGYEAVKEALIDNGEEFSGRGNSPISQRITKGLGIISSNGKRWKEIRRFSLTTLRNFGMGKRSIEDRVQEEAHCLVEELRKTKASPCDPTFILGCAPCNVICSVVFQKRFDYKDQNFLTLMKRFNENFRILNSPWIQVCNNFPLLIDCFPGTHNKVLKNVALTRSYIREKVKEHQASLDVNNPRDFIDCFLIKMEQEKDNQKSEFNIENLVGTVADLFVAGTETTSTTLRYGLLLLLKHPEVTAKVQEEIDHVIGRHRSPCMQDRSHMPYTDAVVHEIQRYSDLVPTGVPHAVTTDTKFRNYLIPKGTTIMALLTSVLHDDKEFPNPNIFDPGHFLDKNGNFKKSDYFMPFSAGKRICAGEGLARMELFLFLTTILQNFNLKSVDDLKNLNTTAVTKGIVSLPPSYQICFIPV
Kind of data set: Linear mixed inhibition of CYP2C8 in human liver microsomes assessed as rosiglitazone demethylation after 20 mins by LC-MS/MS analysis. The format is ADME. (In general: Liver microsomes are a subcellular fraction often used to study metabolism.)

Data set [2] deals with T2, UDP-glucuronosyltransferase 2B7 (Homo sapiens, UniProt P16662).
T2 sequence (P16662 whole entry): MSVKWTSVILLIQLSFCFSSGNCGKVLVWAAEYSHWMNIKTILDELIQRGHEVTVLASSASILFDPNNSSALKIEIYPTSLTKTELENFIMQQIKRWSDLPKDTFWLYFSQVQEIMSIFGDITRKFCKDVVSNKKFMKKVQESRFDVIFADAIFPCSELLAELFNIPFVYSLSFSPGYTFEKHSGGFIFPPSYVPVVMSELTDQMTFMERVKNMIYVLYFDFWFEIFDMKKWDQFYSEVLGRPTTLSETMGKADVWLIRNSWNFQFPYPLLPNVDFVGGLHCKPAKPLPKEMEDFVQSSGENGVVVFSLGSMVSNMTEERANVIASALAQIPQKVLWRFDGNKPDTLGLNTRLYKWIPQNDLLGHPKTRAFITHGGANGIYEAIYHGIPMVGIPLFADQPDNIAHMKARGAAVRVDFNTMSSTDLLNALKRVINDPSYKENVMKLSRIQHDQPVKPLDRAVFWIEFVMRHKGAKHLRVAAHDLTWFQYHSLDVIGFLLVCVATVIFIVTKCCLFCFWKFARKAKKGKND
Description: Drug metabolism assessed as human recombinant UGT2B7-mediated compound formation treated with AMG 853 at 10 uM after 30 mins by LC-MS/MS analysis. The conditions noted are these: recombinant enzyme, 0.5 h. The format is ADME.

The target of data set [3] is UDP-glucuronosyltransferase 1A4 (Homo sapiens, UniProt P22310). Description: Drug metabolism assessed as human recombinant UGT1A4-mediated compound formation treated with AMG 853 at 10 uM after 30 mins by LC-MS/MS analysis. The format is ADME. Particulars: recombinant enzyme, 0.5 h.
Sequence of UDP-glucuronosyltransferase 1A4 (P22310 whole entry): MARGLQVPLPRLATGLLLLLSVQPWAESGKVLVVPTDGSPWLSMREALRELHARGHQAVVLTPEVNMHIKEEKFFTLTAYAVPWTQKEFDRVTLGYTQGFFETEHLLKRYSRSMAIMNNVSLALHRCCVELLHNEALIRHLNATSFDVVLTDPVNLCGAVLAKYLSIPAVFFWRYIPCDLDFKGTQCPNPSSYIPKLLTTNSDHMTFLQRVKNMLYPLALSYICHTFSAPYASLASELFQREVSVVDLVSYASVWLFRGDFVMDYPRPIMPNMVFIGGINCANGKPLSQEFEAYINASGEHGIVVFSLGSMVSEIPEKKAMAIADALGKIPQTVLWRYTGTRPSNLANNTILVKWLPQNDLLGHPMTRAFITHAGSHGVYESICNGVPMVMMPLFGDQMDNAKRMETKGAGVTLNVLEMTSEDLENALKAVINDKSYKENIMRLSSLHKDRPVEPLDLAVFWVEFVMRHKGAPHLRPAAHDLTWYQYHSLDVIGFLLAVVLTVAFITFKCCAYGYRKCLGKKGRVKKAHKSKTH
For data set [4], the target named is T1, Cytochrome P450 2C8. Description: Drug metabolism assessed as recombinant CYP2C8 (unknown origin)-mediated 2-(4-(4-(tert-butylcarbamoyl)-2-(2-chloro-4-(1-hydroxycyclopropyl)phenylsulfonamido)phenoxy)-5-chloro-2-fluorophenyl)acetic acid formation at 10 uM after 30 mins by LC-MS/MS analysis. The class given is ADME. Particulars: recombinant enzyme, 0.5 h.
The subject of data set [5] is Liver microsome. Kind of data set: Drug metabolism in human liver microsomes assessed as 2-(5-chloro-4-(2-(2-chloro-4-cyclopropylphenylsulfonamido)-4-(1-hydroxy-2-methylpropan-2-ylcarbamoyl)phenoxy)-2-fluorophenyl)acetic acid formation at 2 uM after 60 mins by LC-MS/MS analysis in presence of montelukast. The format is ADME. The conditions noted are these: 1 h.
For data set [6], the target named is T3, Cytochrome P450 3A4 (Homo sapiens, UniProt P08684). Kind of data set: Drug metabolism assessed as recombinant CYP3A4 (unknown origin)-mediated 2-(5-chloro-4-(2-(2-chloro-4-cyclopropylphenylsulfonamido)-4-(1-hydroxy-2-methylpropan-2-ylcarbamoyl)phenoxy)-2-fluorophenyl)acetic acid formation at 10 uM after 30 mins by LC-MS/MS analysis. The format is ADME. The conditions noted are these: recombinant enzyme, 0.5 h.
T3 sequence (P08684 whole entry): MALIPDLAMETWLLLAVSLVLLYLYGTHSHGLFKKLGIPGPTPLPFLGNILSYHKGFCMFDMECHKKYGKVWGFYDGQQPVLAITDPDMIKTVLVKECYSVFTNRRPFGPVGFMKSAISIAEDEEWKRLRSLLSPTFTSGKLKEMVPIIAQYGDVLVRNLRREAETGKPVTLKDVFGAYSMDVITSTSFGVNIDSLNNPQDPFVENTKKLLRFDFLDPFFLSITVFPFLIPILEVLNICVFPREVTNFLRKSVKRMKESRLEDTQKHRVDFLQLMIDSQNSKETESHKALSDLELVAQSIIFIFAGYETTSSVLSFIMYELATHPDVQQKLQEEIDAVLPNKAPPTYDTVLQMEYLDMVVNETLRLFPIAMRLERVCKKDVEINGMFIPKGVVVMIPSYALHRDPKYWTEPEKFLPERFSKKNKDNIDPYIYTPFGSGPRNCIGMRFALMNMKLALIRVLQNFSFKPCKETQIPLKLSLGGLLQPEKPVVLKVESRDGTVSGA

In data set [7] the target is T3, Cytochrome P450 3A4. Kind of data set: Drug metabolism assessed as recombinant CYP3A4 (unknown origin)-mediated 2-(4-(4-(tert-butylcarbamoyl)-2-(2-chloro-4-(1-hydroxycyclopropyl)phenylsulfonamido)phenoxy)-5-chloro-2-fluorophenyl)acetic acid formation at 10 uM after 30 mins by LC-MS/MS analysis. The format is ADME. The conditions noted are these: recombinant enzyme, 0.5 h.

Data set [8] has as its target UDP-glucuronosyltransferase 1A9 (Homo sapiens, UniProt O60656). Kind of data set: Drug metabolism assessed as human recombinant UGT1A9-mediated (2S,3S,4S,5R,6S)-6-(2-(4-(4-(tert-butylcarbamoyl)-2-(2-chloro-4-cyclopropylphenylsulfonamido)phenoxy)-5-chloro-2-fluorophenyl)acetoxy)-3,4,5-trihydroxytetrahydro-2H-pyran-2-carboxylic acid formation at 10 uM after 30 mins by LC-MS/MS analysis. The format is ADME. The conditions noted are these: recombinant enzyme, 0.5 h.

Data set [9] is described as follows: AUC (0 to infinity) in healthy human at 50 mg, po in presence of ketoconazole. The format is ADME, organism-based. More on the design: dose 50 mg, route oral, time infinity. The conditions noted are these: plasma.
For data set [10], the system named is CYP1A2. Kind of data set: Upregulation of CYP1A2 mRNA expression in human hepatocytes at 0.3 to 30 uM treated every 24 hrs for 2 days measured on day 5 relative to control. The class given is ADME, cell-based, Hepatocyte. The conditions noted are these: read-out: FC.
Data set [11] is described as follows: Drug metabolism in human liver microsomes assessed as […]-mediated (2S,3S,4S,5R,6S)-6-(2-(4-(4-(tert-butylcarbamoyl)-2-(2-chloro-4-cyclopropylphenylsulfonamido)phenoxy)-5-chloro-2-fluorophenyl)acetoxy)-3,4,5-trihydroxytetrahydro-2H-pyran-2-carboxylic acid formation after 15 mins by LC-MS/MS analysis in presence of UDPGA and NADPH. The format is ADME. The conditions noted are these: 0.25 h.

Data set [12] addresses T4, UDP-glucuronosyltransferase 1A1 (Homo sapiens, UniProt P22309).
T4 sequence (P22309 whole entry): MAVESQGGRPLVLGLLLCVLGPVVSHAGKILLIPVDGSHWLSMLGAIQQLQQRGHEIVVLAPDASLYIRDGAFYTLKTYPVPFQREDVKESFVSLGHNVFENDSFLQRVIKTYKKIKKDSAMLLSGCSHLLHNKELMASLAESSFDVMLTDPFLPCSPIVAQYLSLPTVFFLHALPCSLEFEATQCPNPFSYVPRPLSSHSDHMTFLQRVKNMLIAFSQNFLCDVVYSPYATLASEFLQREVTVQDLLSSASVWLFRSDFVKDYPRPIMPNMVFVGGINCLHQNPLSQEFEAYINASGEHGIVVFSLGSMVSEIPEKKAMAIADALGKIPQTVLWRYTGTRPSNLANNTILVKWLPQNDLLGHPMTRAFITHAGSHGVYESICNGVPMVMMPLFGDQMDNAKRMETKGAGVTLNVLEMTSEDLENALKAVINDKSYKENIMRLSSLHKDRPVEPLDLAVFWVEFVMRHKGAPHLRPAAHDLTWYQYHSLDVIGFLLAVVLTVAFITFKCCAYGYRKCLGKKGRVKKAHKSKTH
Description: Drug metabolism assessed as human recombinant UGT1A1-mediated (2S,3S,4S,5R,6S)-6-(2-(4-(4-(tert-butylcarbamoyl)-2-(2-chloro-4-cyclopropylphenylsulfonamido)phenoxy)-5-chloro-2-fluorophenyl)acetoxy)-3,4,5-trihydroxytetrahydro-2H-pyran-2-carboxylic acid formation at 10 uM after 30 mins by LC-MS/MS analysis. The class given is ADME. Particulars: recombinant enzyme, 0.5 h.

Data set [13] can be described thus: Cmax in healthy human at 50 mg, po in presence of ketoconazole. The class given is ADME, organism-based. More on the design: dose 50 mg, route oral. Particulars: in vivo.

As a reminder, the Ki is the dissociation constant of the complex between target and ligand, obtained from inhibition or displacement. As a reminder, the AUC(0-inf) is total exposure, with the tail of the curve extrapolated. What is called Cmax is the peak of the concentration-time curve.

Sequence of UDP-glucuronosyltransferase 1A9 (O60656 whole entry): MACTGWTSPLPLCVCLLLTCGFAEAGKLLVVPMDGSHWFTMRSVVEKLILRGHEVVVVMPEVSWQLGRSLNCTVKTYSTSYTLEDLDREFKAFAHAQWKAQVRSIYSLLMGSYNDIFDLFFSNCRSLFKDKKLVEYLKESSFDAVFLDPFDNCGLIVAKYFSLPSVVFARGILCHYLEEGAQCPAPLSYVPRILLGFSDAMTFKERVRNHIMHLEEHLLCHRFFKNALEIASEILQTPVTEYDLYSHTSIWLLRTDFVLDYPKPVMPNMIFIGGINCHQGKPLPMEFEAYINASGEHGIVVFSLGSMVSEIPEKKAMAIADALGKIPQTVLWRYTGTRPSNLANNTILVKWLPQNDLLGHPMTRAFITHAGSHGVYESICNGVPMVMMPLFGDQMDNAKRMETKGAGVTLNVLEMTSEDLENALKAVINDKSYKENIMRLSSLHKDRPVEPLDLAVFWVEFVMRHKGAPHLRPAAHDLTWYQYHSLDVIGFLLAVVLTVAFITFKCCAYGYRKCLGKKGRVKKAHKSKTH

Regarding `CC(C)(C)NC(=O)c1ccc(Oc2cc(F)c(CC(=O)O[C@@H]3O[C@H](C(=O)O)[C@@H](O)[C@H](O)[C@H]3O)cc2Cl)c(NS(=O)(=O)c2ccc(C3CC3)cc2Cl)c1`, in data set [1], the Ki was 6.9 µM. The Drug metabolism result in data set [2] and in [3] was “metabolite_detected” throughout.

As for `CC(C)(C)NC(=O)c1ccc(Oc2cc(F)c(CC(=O)O)cc2Cl)c(NS(=O)(=O)c2ccc(C3CC3)cc2Cl)c1` [VIDUPIPRANT], the Drug metabolism result in data set [4] was “metabolite_detected”; in data set [5], “metabolite_not_detected”; in data set [6] it was “metabolite_detected”; in data set [7], “metabolite_detected”; in [8], “metabolite_not_detected”; in [11], “metabolite_not_detected”. For the same molecule, in data set [12], the Drug metabolism result is on record as “metabolite_detected”. Also, the AUC(0-inf) in [9] was determined as 800 ng·h/mL. For the same molecule, in [10], the fold induction at 48 h, up to 30 µM amounted to 1.7. Moreover, the Cmax in data set [13] amounted to 270 ng/mL.
